Measured values published in ChEMBL document CHEMBL1201862, “PubChem BioAssay data set” (2004).
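How tested: cells in 96-well plates exposed to compound for 48 hours at five concentrations. GI50: concentration for 50% inhibition of growth.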 Active and inactive are the calls of the source. Cut-off read from the data, not from the text of the source: active = GI50 up to about 1.1 µM and inactive = higher.

Legend:
Assay in all cases: inhibition of tumour cell growth, NCI panel, 48 h
HOP-62 = test system: HOP-62
SR = test system: SR
DMS-273 = test system: DMS-273
CCRF-CEM = test system: CCRF-CEM
KM12 = test system: KM12
ACHN = test system: ACHN
SW-620 = test system: SW-620
TK-10 = test system: TK-10
MOLT-4 = test system: MOLT-4
DLD-1 = test system: DLD-1
LOX IMVI = test system: LOX IMVI
786-0 = test system: 786-0
DMS-114 = test system: DMS-114
SK-MEL-28 = test system: SK-MEL-28
XF498 = test system: XF498
LXFL 529 = test system: LXFL 529
SNB-78 = test system: SNB-78
HOP-92 = test system: HOP-92
HCT-15 = test system: HCT-15
HL-60 = test system: HL-60
SF-268 = test system: SF-268
UACC-257 = test system: UACC-257
OVCAR-8 = test system: OVCAR-8
Malme-3M = test system: Malme-3M
HCT-116 = test system: HCT-116
NCI-H226 = test system: NCI-H226
SNB-19 = test system: SNB-19
CAKI-1 = test system: CAKI-1
NCI-H23 = test system: NCI-H23
M19-MEL = test system: M19-MEL
COLO 205 = test system: COLO 205
HCC 2998 = test system: HCC 2998
SK-MEL-2 = test system: SK-MEL-2
OVCAR-5 = test system: OVCAR-5
SN12C = test system: SN12C
KM-20L2 = test system: KM-20L2
SF-295 = test system: SF-295
SK-OV-3 = test system: SK-OV-3
RXF 631 = test system: RXF 631
UO-31 = test system: UO-31
M14 = test system: M14
NCI-H522 = test system: NCI-H522
SNB-75 = test system: SNB-75
A498 = test system: A498
A549 = test system: A549
UACC-62 = test system: UACC-62
NCI-H460 = test system: NCI-H460
U-251 = test system: U-251
EKVX = test system: EKVX
SF-539 = test system: SF-539
K562 = test system: K562
SK-MEL-5 = test system: SK-MEL-5
HT-29 = test system: HT-29
IGROV-1 = test system: IGROV-1
OVCAR-4 = test system: OVCAR-4
HOP-18 = test system: HOP-18
RXF 393 = test system: RXF 393
OVCAR-3 = test system: OVCAR-3

## CN(C(=O)C12C3C4C1C1C4(C(=O)C45C6C7C4C4C5C6C74C)C3C12C)C(C)(C)C (stereo not given)
HOP-62
  GI50: > 100 µM (inactive)
SR
  GI50: 29.2 µM (inactive)
DMS-273
  GI50: 53.6 µM (inactive)
CCRF-CEM
  GI50: 32.1 µM (inactive)
KM12
  GI50: 78.7 µM (inactive)
ACHN
  GI50: 74.3 µM (inactive)
SW-620
  GI50: > 100 µM (inactive)
TK-10
  GI50: > 100 µM (inactive)
MOLT-4
  GI50: 40.3 µM (inactive)
DLD-1
  GI50: 56.5 µM (inactive)
LOX IMVI
  GI50: 48.1 µM (inactive)
786-0
  GI50: 67.9 µM (inactive)
DMS-114
  GI50: 39.8 µM (inactive)
SK-MEL-28
  GI50: > 100 µM (inactive)
XF498
  GI50: 49 µM (inactive)
LXFL 529
  GI50: 37.8 µM (inactive)
SNB-78
  GI50: 78.3 µM (inactive)
HOP-92
  GI50: 28.6 µM (inactive)
HCT-15
  GI50: 28.3 µM
HL-60
  GI50: 14.8 µM (inactive)
SF-268
  GI50: > 100 µM (inactive)
UACC-257
  GI50: 32.5 µM (inactive)
OVCAR-8
  GI50: > 100 µM (inactive)
Malme-3M
  GI50: > 100 µM (inactive)
HCT-116
  GI50: 52.7 µM (inactive)
NCI-H226
  GI50: 72.3 µM (inactive)
SNB-19
  GI50: 69.5 µM (inactive)
CAKI-1
  GI50: > 100 µM (inactive)
NCI-H23
  GI50: 70.5 µM (inactive)
M19-MEL
  GI50: 45.9 µM (inactive)
COLO 205
  GI50: 35.4 µM (inactive)
HCC 2998
  GI50: 91 µM (inactive)
SK-MEL-2
  GI50: > 100 µM (inactive)
OVCAR-5
  GI50: 88.1 µM (inactive)
SN12C
  GI50: > 100 µM (inactive)
KM-20L2
  GI50: 31.2 µM (inactive)
SF-295
  GI50: > 100 µM (inactive)
SK-OV-3
  GI50: 90.4 µM (inactive)
RXF 631
  GI50: 34.6 µM (inactive)
UO-31
  GI50: 38.5 µM (inactive)
M14
  GI50: > 100 µM (inactive)
NCI-H522
  GI50: 48.6 µM (inactive)
SNB-75
  GI50: > 100 µM (inactive)
A498
  GI50: 55.3 µM (inactive)
A549
  GI50: 52.7 µM (inactive)
UACC-62
  GI50: 48.3 µM (inactive)
NCI-H460
  GI50: 54.6 µM (inactive)
U-251
  GI50: 79.3 µM (inactive)
EKVX
  GI50: > 100 µM (inactive)
SF-539
  GI50: > 100 µM (inactive)
K562
  GI50: 26.4 µM (inactive)
SK-MEL-5
  GI50: 31.6 µM (inactive)
HT-29
  GI50: 17.5 µM (inactive)
IGROV-1
  GI50: > 100 µM (inactive)

## COC1C(CN[N+](=O)CC2OC3OC(C)(C)OC3C2OC)OC2OC(C)(C)OC21 (stereo not given)
HOP-62
  GI50: > 100 µM (inactive)
DMS-273
  GI50: > 100 µM (inactive)
CCRF-CEM
  GI50: > 100 µM (inactive)
OVCAR-4
  GI50: > 100 µM (inactive)
KM12
  GI50: > 100 µM (inactive)
ACHN
  GI50: > 100 µM (inactive)
SW-620
  GI50: > 100 µM (inactive)
TK-10
  GI50: > 100 µM (inactive)
MOLT-4
  GI50: > 100 µM (inactive)
DLD-1
  GI50: > 100 µM (inactive)
LOX IMVI
  GI50: > 100 µM (inactive)
786-0
  GI50: > 100 µM (inactive)
DMS-114
  GI50: > 100 µM (inactive)
HOP-18
  GI50: > 100 µM (inactive)
SK-MEL-28
  GI50: > 100 µM (inactive)
SNB-78
  GI50: > 100 µM (inactive)
HOP-92
  GI50: > 100 µM (inactive)
HCT-15
  GI50: > 100 µM
HL-60
  GI50: > 100 µM (inactive)
SF-268
  GI50: > 100 µM (inactive)
RXF 393
  GI50: > 100 µM (inactive)
UACC-257
  GI50: > 100 µM (inactive)
OVCAR-8
  GI50: > 100 µM (inactive)
Malme-3M
  GI50: > 100 µM (inactive)
OVCAR-3
  GI50: > 100 µM (inactive)
HCT-116
  GI50: > 100 µM (inactive)
NCI-H226
  GI50: > 100 µM (inactive)
SNB-19
  GI50: > 100 µM (inactive)
CAKI-1
  GI50: > 100 µM (inactive)
NCI-H23
  GI50: > 100 µM (inactive)
M19-MEL
  GI50: > 100 µM (inactive)
COLO 205
  GI50: > 100 µM (inactive)
HCC 2998
  GI50: > 100 µM (inactive)
SK-MEL-2
  GI50: > 100 µM (inactive)
OVCAR-5
  GI50: > 100 µM (inactive)
SN12C
  GI50: > 100 µM (inactive)
SF-295
  GI50: > 100 µM (inactive)
SK-OV-3
  GI50: > 100 µM (inactive)
RXF 631
  GI50: > 100 µM (inactive)
UO-31
  GI50: > 100 µM (inactive)
M14
  GI50: > 100 µM (inactive)
SNB-75
  GI50: > 100 µM (inactive)
A498
  GI50: > 100 µM (inactive)
A549
  GI50: > 100 µM (inactive)
UACC-62
  GI50: > 100 µM (inactive)
NCI-H460
  GI50: > 100 µM (inactive)
U-251
  GI50: > 100 µM (inactive)
EKVX
  GI50: > 100 µM (inactive)
SF-539
  GI50: > 100 µM (inactive)
K562
  GI50: > 10 µM (inactive)
SK-MEL-5
  GI50: > 100 µM (inactive)
HT-29
  GI50: > 100 µM (inactive)
IGROV-1
  GI50: > 100 µM (inactive)

## CN/N=C(\C)c1c(O)cc(C)oc1=O
HOP-62
  GI50: > 100 µM (inactive)
SR
  GI50: > 100 µM (inactive)
CCRF-CEM
  GI50: > 100 µM (inactive)
OVCAR-4
  GI50: > 100 µM (inactive)
KM12
  GI50: > 100 µM (inactive)
ACHN
  GI50: > 100 µM (inactive)
SW-620
  GI50: > 100 µM (inactive)
TK-10
  GI50: > 100 µM (inactive)
MOLT-4
  GI50: > 100 µM (inactive)
DLD-1
  GI50: > 100 µM (inactive)
LOX IMVI
  GI50: > 100 µM (inactive)
786-0
  GI50: > 100 µM (inactive)
HOP-18
  GI50: > 100 µM (inactive)
SK-MEL-28
  GI50: > 100 µM (inactive)
LXFL 529
  GI50: > 100 µM (inactive)
HOP-92
  GI50: > 100 µM (inactive)
HCT-15
  GI50: > 100 µM
HL-60
  GI50: > 100 µM (inactive)
SF-268
  GI50: > 100 µM (inactive)
UACC-257
  GI50: > 100 µM (inactive)
OVCAR-8
  GI50: > 100 µM (inactive)
Malme-3M
  GI50: > 100 µM (inactive)
HCT-116
  GI50: > 100 µM (inactive)
NCI-H226
  GI50: > 100 µM (inactive)
SNB-19
  GI50: > 100 µM (inactive)
CAKI-1
  GI50: > 100 µM (inactive)
NCI-H23
  GI50: > 100 µM (inactive)
M19-MEL
  GI50: > 100 µM (inactive)
HCC 2998
  GI50: > 100 µM (inactive)
SK-MEL-2
  GI50: > 100 µM (inactive)
SN12C
  GI50: > 100 µM (inactive)
KM-20L2
  GI50: > 100 µM (inactive)
SF-295
  GI50: > 100 µM (inactive)
SK-OV-3
  GI50: > 100 µM (inactive)
RXF 631
  GI50: > 100 µM (inactive)
UO-31
  GI50: > 100 µM (inactive)
M14
  GI50: > 100 µM (inactive)
NCI-H522
  GI50: > 100 µM (inactive)
SNB-75
  GI50: > 100 µM (inactive)
A498
  GI50: > 100 µM (inactive)
A549
  GI50: > 100 µM (inactive)
UACC-62
  GI50: > 100 µM (inactive)
NCI-H460
  GI50: > 100 µM (inactive)
U-251
  GI50: > 100 µM (inactive)
EKVX
  GI50: > 100 µM (inactive)
SF-539
  GI50: > 100 µM (inactive)
K562
  GI50: > 100 µM (inactive)
HT-29
  GI50: > 100 µM (inactive)
